Legend:
[1] = intravenous toxicity in anaesthetised rats; type: in vivo; conditions: two anaesthetised rats, ten times the dose giving approximate 50% inhibition of gastric secretion in the anaesthetised rat
Procedure: (§1) No overt toxicity or side effects were noted during the rat or dog tests. The compound 5-[4-(2-allylguanidino)-1,2,3-triazol-2-yl]valeramide was administered intravenously to groups of two anaesthetised rats and four conscious mice at doses which were respectively ten times and one hundred times the dose, in mg/kg., which produced an approximate 50% inhibition of gastric secretion in the anaesthetised rat.

[2] = intravenous toxicity in conscious mice; type: in vivo; conditions: four conscious mice, one hundred times the dose giving approximate 50% inhibition of gastric secretion in the anaesthetised rat
Procedure: as §1

Question: For `C=CCN=C(N)Nc1cnn(CCCCC(N)=O)n1.O=C(O)/C=C\C(=O)O` [Example 8, 5-(4-[2-allylguanidino]-1,2,3-triazol-2-yl)valeramide maleate], which toxic symptoms [1] is on record?
Answer: Its toxic symptoms is “No toxic symptoms were noted”.

Question: And the toxic symptoms [2]?
Answer: Its toxic symptoms is “No toxic symptoms were noted”.
